How the values were obtained:
[1] = target: Plasmodium vivax (Pv) NMT (Plasmodium vivax (strain Salvador I), UniProt A5K1A2); test: biochemical
Human NMT1 (HsNMT1) = Human NMT1 (HsNMT1) (Homo sapiens, UniProt P30419); test: biochemical
[2] = system: Plasmodium falciparum 3D7; test: SYBR Green assay, Plasmodium falciparum strain 3D7; format: cell-based; details: P. falciparum strain 3D7, 96 h incubation, read-out: Pf EC50 strain 3D7
Protocol: Assay (g): SYBR Green Assay
EC50 values for Plasmodium falciparum (Pf) NMT strain 3D7 or NF54 were measured for certain compounds of the invention using an assay utilising SYBR Green dye. The assay for NMT strain 3D7 was carried out as follows:
Synchronous Plasmodium falciparum 3D7 late stage trophozoites at 33-36 h were used. Final parasitemia and haematocrit were between 0.1-0.2% and 2% respectively. Red blood cells used for the assay were centrifuged to remove the buffy coat and washed twice in Roswell Park Memorial Institute (RPMI) Media 1640 so that no white blood cells were present. The culture medium contained RPMI 1640 with 5 g/L Albumax, 0.025 g/L gentamycin and 0.292 g/L L-glutamine.
Sterile 96 well black tissue culture plates (Costar) were used routinely for every assay. […] Chloroquine was used as a standard with ten times reduced concentrations range as above. Two sets of control were used in duplicate wells, one set with no added compound of the invention or standard (positive control) and one with uninfected red blood cells (negative control).
The plates were incubated at 37° C. for 48 h in a gas chamber flushed with 5% CO2, 5% O2 and 90% N2. After 48 h supernatants were taken out from each well and replaced with fresh drug and incubated for a further 48 h in the same manner. At the end of the 96 h incubation, 25 μL of SYBR Green I dye (SYBR Green I nucleic acid gel stain 10,000×, in DMSO from Invitrogen) in lysis buffer (1 μL dye to 1 mL lysis buffer) was added to each well and stored overnight at −20° C. The lysis buffer contained Tris (20 mM, pH 8.0), EDTA (2 mM), Saponin (0.16%) and Triton X-100 (1.6% v/v).
Plates were warmed to room temperature and fluorescence intensity was measured with a FLUOstar Omega Microplate fluorescence reader (BMG Labtech). Values were expressed in relative fluorescence units. Binding of SYBR Green is specific for parasite DNA as mature erythrocytes lack DNA and RNA. Fluorescence intensity unit was converted to percentage (%) of growth as follows:
% growth=(culture under drug)−(uninfected RBC)/(culture with no drug)−(uninfected RBC)×100
and the EC50 value was determined.

SU-DHL-10 cells = test: Cell cytotoxicity in SU-DHL-10 cell line (CellTiter-Glo); format: cell-based; details: Homo sapiens, SU-DHL10; CellTiter-Glo, 48 h; read-out: SU-DHL-10 EC50
Protocol: Assay (c): Cell Cytotoxicity in SU-DHL-10 Cell Line
Cell Culture: SU-DHL-10 (ATCC CRL-2963) were cultured in RPMI-media (ATCC, 30-2001).
Cultures were maintained by the addition of fresh medium and inoculum of 8.0×10^4 to 2.0×10^5 cells/mL. Subculturing was done when the cell density was between 1.0×10^6 and 2.0×10^6 cells/mL.
Cell seeding: 5000 cells/well were plated in 384-white clear bottom plates (Greiner, 781098) for the assay in 20 μl growth media.
Top dose: 1 mM stocks of each compound was prepared in 100% DMSO and thereafter diluted 333.33 fold in growth media to obtain 3 μM (0.3% DMSO) mid stock of each compound, from which 10 μl was added to assay wells (with 20 μl cells) for a final concentration of 1 μM (0.1% DMSO). For subsequent dose-response: 1 mM stock was diluted 3 fold in DMSO before subjecting to above dilution pattern to obtain final 0.1% DMSO concentration.
Treatment: Cells were incubated with the compounds for 48 h at 37° C. in presence of 5% CO2.
Assay Procedure: The assay plate and its contents were equilibrated at room temperature for approximately 30 minutes. CellTiter-Glo® Reagent was added equal to the volume (1;1) of cell culture medium present in each well. The contents were mixed for 5 minutes on an orbital shaker to induce cell lysis. The plate was allowed to incubate at room temperature for 10 minutes to stabilize luminescent signal. The luminescence was recorded with an integration time of 0.25 seconds in EnVision 2104 Multilabel Plate Reader (Perkin Elmer).
Calculation: % Cytotoxicity was calculated considering 100% cell death in wells treated with 0.1% TritonX.

in vitro = details: male, Sprague-Dawley, rat, pooled cryopreserved rat hepatocytes, pH 7.4
Protocol: Assay (e): Rat Hepatocyte Half Life
Certain example compound of the present invention were tested for metabolic stability in rat metabolic assays using hepatocytes derived from pooled male Sprague-Dawley rats.
Frozen pooled rat hepatocytes obtained from LifeTechnologies were thawed and purified according to the manufacturer's instructions. The test compound (4 mM) in DMSO was diluted with acetonitrile to provide a 100 μM sub-stock then further diluted with pH 7.4 Krebs-Henseleit buffer (supplemented with CaCl2, NaHCO3, HEPES, fructose and glycine) to provide a 2 μM working solution. 25 μL of working solution was incubated at 37° C., treated with 25 μL of rat hepatocyte suspension (containing 1×10^6 cells/mL) and incubated at 37° C. with 5% CO2 level at 95% relative humidity. Wells were incubated for an appropriate time (0, 15, 30, 45, 60 and 75 min) then quenched with 250 μL of acetonitrile containing reference standards diltiazem, 7-ethoxycoumarin and propranolol). The plates were shaken, sonicated for 5 min then cooled to 4° C. until all sampling was complete. All plates were centrifuged at 4000 rpm for 20 min to pellet the debris. 110 μL supernatant was diluted 110 μL water and quantitated using LC-MS/MS.
A linear regression curve was fitted to a plot of natural logarithm (In) of AUC against time. The T-half (min)=0.693/slope

Sequence of Plasmodium vivax (Pv) NMT (A5K1A2 1-410): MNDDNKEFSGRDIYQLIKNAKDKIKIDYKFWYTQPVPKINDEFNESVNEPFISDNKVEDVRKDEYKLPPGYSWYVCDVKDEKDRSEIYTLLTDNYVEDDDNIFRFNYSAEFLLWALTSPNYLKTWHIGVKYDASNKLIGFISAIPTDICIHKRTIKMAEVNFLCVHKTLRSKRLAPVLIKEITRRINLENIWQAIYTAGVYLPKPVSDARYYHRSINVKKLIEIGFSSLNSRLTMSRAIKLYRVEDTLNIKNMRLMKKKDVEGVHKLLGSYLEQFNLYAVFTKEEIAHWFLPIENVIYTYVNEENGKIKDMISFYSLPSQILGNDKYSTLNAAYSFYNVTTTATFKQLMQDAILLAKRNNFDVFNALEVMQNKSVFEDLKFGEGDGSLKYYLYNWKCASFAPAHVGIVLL
Sequence of Human NMT1 (HsNMT1) (P30419 whole entry, looked up): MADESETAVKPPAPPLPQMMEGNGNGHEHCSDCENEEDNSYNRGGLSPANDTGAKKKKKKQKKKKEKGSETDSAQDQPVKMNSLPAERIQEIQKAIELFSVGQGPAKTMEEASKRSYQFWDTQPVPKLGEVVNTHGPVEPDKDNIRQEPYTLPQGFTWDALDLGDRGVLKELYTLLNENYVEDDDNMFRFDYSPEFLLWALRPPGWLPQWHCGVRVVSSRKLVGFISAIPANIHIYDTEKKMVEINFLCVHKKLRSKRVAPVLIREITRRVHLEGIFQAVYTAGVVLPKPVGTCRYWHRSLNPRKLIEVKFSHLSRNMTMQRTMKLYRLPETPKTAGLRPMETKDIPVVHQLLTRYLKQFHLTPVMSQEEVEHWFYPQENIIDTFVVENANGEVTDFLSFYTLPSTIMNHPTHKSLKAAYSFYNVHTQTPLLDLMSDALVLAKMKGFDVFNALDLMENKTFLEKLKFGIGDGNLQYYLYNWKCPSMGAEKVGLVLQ

SMILES	IC50 [1] [nM]	IC50 (Human NMT1 (HsNMT1)) [nM]	EC50 [2] [nM]	EC50 (SU-DHL-10 cells) [nM]	half-life at 1 µM (in vitro) [h]
C[C@@H]1CN(c2ncc(Cl)c(N3CC(C(=O)NC(C)(C)c4cnc5ccccn45)C3)n2)CCN1 [Example 1, 1-{5-chloro-2-[(3R)-3-methylpiperazin-1-y]pyrimidin-4-yl}-N-(2-{imidazo[1,2-a]pyridin-3-yl}propan-2-yl)azetidine-3-carboxamide]	6.6	3	6.3	367	–
CN1CCN(c2cc(N3CC(C(=O)NC(C)(C)c4cnc5ccccn45)C3)c(F)cn2)CC1 [Example 4, 1-[5-fluoro-2-(4-methylpiperazin-1-yl)pyridin-4-yl]-N-(2-{imidazo[1,2-a]pyridin-3-yl}propan-2-yl)azetidine-3-carboxamide]	–	–	100	–	> 3
CC(C)(NC(=O)C1CN(c2nc(N3CCNCC3)ncc2Cl)C1)c1cnc2ccccn12 [Example 33]	6.6	3.5	18	878	–
C[C@@H]1CN(c2ncc(Cl)c(N3CC(C(=O)NC(C)(C)c4cnc5ccccn45)C3)n2)C[C@H](C)N1 [Example 43]	–	–	110	–	> 3
C[C@@H]1CN(c2ncc(F)c(N3CC(C(=O)NC(C)(C)c4cnc5ccccn45)C3)n2)C[C@H](C)N1 [Example 44]	32	120	540	–	> 3
CC1CN(c2ncc(Cl)c(N3CC(C(=O)NC(C)(C)c4cnc5ccccn45)C3)n2)C[C@H](C)N1 (stereo partly shown) [Example 48]	–	–	65	795	–
CC1CNCCN1c1ncc(Cl)c(N2CC(C(=O)N(C)C(C)(C)c3cnc4ccccn34)C2)n1 (stereo not shown) [Example 50]	–	–	26	35	–
Cc1ccc2ncc(C(C)(C)NC(=O)C3CN(c4nc(N5CCN(C)CC5)ncc4F)C3)n2c1 [Example 60]	110	–	240	–	2.41
CN1CCN(c2ncc(F)c(N3CC(C(=O)NC(C)(C)c4cnc5c(F)cccn45)C3)n2)CC1 [Example 61]	13	–	260	–	> 3
CN1CCN(c2ncc(F)c(N3CC(C)(C(=O)NC(C)(C)c4cnc5ccccn45)C3)n2)CC1 [Example 65]	90	–	> 1000	–	2.41
Cc1cnc(N2CCN(C)CC2)nc1N1CC(C(=O)NC(C)(C)c2cnc3ccccn23)C1 [Example 66]	29	–	320	–	> 3
Cc1ccc2ncc(C(C)(C)NC(=O)C3CN(c4nc(N5CCN(C)CC5)ncc4Cl)C3)n2c1 [Example 67]	5.6	–	120	–	> 3
CCN1CCN(c2ncc(Cl)c(N3CC(C(=O)NC(C)(C)c4cnc5ccccn45)C3)n2)CC1 [Example 70]	8.6	–	410	–	> 3
CC(C)N1CCN(c2ncc(Cl)c(N3CC(C(=O)NC(C)(C)c4cnc5ccccn45)C3)n2)CC1 [Example 71]	11	72	560	–	> 3
CN1CCN(c2ncc(Cl)c(N3CCC(C(=O)NC(C)(C)c4cnc5ccccn45)CC3)n2)CC1 [Example 77]	74	–	> 1000	–	1.49
COCC1CN(c2ncc(Cl)c(N3CC(C(=O)NC(C)(C)c4cnc5ccccn45)C3)n2)CCN1C (stereo not shown) [Example 80]	7.9	23	97	–	0.743
C[C@@H]1CN(c2ncc(F)c(N3CC(C(=O)NC(C)(C)c4cnc5ccccn45)C3)n2)CCN1C [Example 84, 1-{2-[(3R)-3,4-dimethylpiperazin-1-yl]-5-fluoropyrimidin-4-yl}-N-(2-{imidazo[1,2-a]pyridin-3-yl}propan-2-yl)azetidine-3-carboxamide]	4.6	33	34	–	2.41
COc1cnc(N2CCN(C)[C@@H](C)C2)nc1N1CC(C(=O)NC(C)(C)c2cnc3ccccn23)C1 [Example 85, 1-{2-[(3S)-3,4-dimethylpiperazin-1-yl]-5-methoxypyrimidin-4-yl}-N-(2-{imidazo[1,2-a]pyridin-3-yl}propan-2-yl)azetidine-3-carboxamide]	8	6.3	14	–	> 3
COc1cnc(N2C[C@@H](C)N(C)[C@@H](C)C2)nc1N1CC(C(=O)NC(C)(C)c2cnc3ccccn23)C1 [Example 88, N-(2-{imidazo[1,2-a]pyridin-3-yl}propan-2-yl)-1-{5-methoxy-2-[(3R,5S)-3,4,5-trimethylpiperazin-1-yl]pyrimidin-4-yl}azetidine-3-carboxamide]	–	–	76	–	> 3
C[C@@H]1CN(c2ncc(Cl)c(N3CC(C(=O)NC(C)(C)c4cnc5ccccn45)C3)n2)C[C@H](C)N1C [Example 89, 1-{5-chloro-2-[(3R,5S)-3,4,5-trimethylpiperazin-1-yl]pyrimidin-4-yl}-N-(2-{imidazo[1,2-a]pyridin-3-yl}propan-2-yl)azetidine-3-carboxamide]	12	27	88	–	> 3
C[C@@H]1CN(c2ncc(F)c(N3CC(C(=O)NC(C)(C)c4cnc5ccccn45)C3)n2)C[C@H](C)N1C [Example 90, 1-{5-fluoro-2-[(3R,5S)-3,4,5-trimethylpiperazin-1-yl]pyrimidin-4-yl}-N-(2-{imidazo[1,2-a]pyridin-3-yl}propan-2-yl)azetidine-3-carboxamide]	19	94	300	–	> 3
C[C@H]1CN(c2ncc(Cl)c(N3CC(C(=O)NC(C)(C)c4cnc5ccccn45)C3)n2)C[C@H](C)N1C [Example 95, 1-{5-chloro-2-[(3S,5S)-3,4,5-trimethylpiperazin-1-yl]pyrimidin-4-yl}-N-(2-{imidazo[1,2-a]pyridin-3-yl}propan-2-yl)azetidine-3-carboxamide]	34	17	150	–	1.51
CC1CN(c2ncc(F)c(N3CC(C(=O)NC(C)(C)c4cnc5ccccn45)C3)n2)C[C@H](C)N1C (stereo partly drawn) [Example 96, 1-{5-fluoro-2-[(3S,5S)S-3,4,5-trimethylpiperazin-1-yl]pyrimidin-4-yl}-N-(2-{imidazo[1,2-a]pyridin-3-yl}propan-2-yl)azetidine-3-carboxamide]	130	31	> 910	–	> 3
C[C@H]1CN(C)CCN1c1ncc(F)c(N2CC(C(=O)N(C)C(C)(C)c3cnc4ccccn34)C2)n1 [Example 108, 1-{2-[(2S)-2,4-dimethylpiperazin-1-yl]-5-fluoropyrimidin-4-yl}-N-(2-{imidazo[1,2-a]pyridin-3-yl}propan-2-yl)-N-methylazetidine-3-carboxamide]	–	–	200	–	0.967
C[C@H]1CN(c2ncc(Cl)c(N3CC(C(=O)NC(C)(C)c4cnc5ccccn45)C3)n2)[C@@H](C)CN1 [Example 151, 1-(5-chloro-2-((2S,5S)-2,5-dimethylpiperazin-1-yl)pyrimidin-4-yl)-N-(2-(imidazo[1,2-a]pyridin-3-yl)propan-2-yl)azetidine-3-carboxamide]	–	2	–	15	–
C[C@H]1CN(c2ncc(Cl)c(N3CC(C(=O)NC(C)(C)c4cnc5ccccn45)C3)n2)[C@@H](C)CN1C [Example 152, 1-(5-chloro-2-((2S,5S)-2,4,5-trimethylpiperazin-1-yl)pyrimidin-4-yl)-N-(2-(imidazo[1,2-a]pyridin-3-yl)propan-2-yl)azetidine-3-carboxamide]	–	8	–	306	–
C[C@@H]1CN(c2ncc(Cl)c(N3CC(C(=O)NC(C)(C)c4cnc5ccccn45)C3)n2)[C@@H](C)CN1 [Example 153, 1-(5-chloro-2-((2S,5R)-2,5-dimethylpiperazin-1-yl)pyrimidin-4-yl)-N-(2-(imidazo[1,2-a]pyridin-3-yl)propan-2-yl)azetidine-3-carboxamide]	–	3	–	54	–
C[C@@H]1CN(c2ncc(Cl)c(N3CC(C(=O)NC(C)(C)c4cnc5ccccn45)C3)n2)[C@@H](C)CN1C [Example 154, 1-(5-chloro-2-((2S,5R)-2,4,5-trimethylpiperazin-1-yl)pyrimidin-4-yl)-N-(2-(imidazo[1,2-a]pyridin-3-yl)propan-2-yl)azetidine-3-carboxamide]	–	10	–	453	–

Source: patent publication US20240166643A1, “IMIDAZO[1,2-A]PYRIDINE COMPOUNDS AND THEIR USE IN THERAPY” (Imperial College Innovations Limited, priority 2020, published 2024)
